Source: patent US8658794B2, “8-methyl-1-phenyl-imidazol[1,5-a]pyrazine compounds as Lck inhibitors and uses thereof” (Merck Sharp & Dohme B.V., priority 2010, dated 2014)

target: T1, N-terminal His6-tagged recombinant full-length human Lck (Homo sapiens, UniProt P06239); assay: Lck IMAP assay; type: biochemical; settings: ATP 6 μM (KM,ATP), enzyme pre-incubated with compounds for 60 minutes, values given as bins
T1 construct: N-terminal His6-tagged recombinant full-length human Lck; His6 (N); purchased Millipore
T1 sequence (P06239 whole entry): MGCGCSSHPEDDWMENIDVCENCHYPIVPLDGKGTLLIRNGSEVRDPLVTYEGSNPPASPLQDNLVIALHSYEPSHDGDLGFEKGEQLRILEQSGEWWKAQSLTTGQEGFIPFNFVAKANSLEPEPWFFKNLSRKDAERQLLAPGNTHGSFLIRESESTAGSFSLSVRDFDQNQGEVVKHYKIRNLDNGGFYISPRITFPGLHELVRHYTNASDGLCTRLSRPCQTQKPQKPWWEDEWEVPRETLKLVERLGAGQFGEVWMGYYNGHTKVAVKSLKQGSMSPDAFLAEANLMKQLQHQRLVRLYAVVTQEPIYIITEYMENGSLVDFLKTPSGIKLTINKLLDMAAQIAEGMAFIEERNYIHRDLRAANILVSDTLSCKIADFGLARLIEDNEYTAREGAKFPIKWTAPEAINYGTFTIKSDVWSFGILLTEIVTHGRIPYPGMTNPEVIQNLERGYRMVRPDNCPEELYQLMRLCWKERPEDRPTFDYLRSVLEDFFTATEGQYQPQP
In short: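 Full-length His6-Lck at 0.1 U/ml was preincubated 60 min with compound, then run 120 min at room temperature with 100 nM fluorescein-p34cdc2 peptide and 6 μM ATP (KM) in pH 7.2 Tris buffer. Read-out by IMAP fluorescence polarization; pIC50 from ten-point √10 dilutions starting at 10^-6 M.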

IC50, ≤ 10 nM:
COc1cc(-c2nc([C@H]3CC[C@H](N4CCN(C)CC4)CC3)n3ccnc(C)c23)ccc1NC(=O)c1cc2ccsc2n1C [Example 56, N-(2-methoxy-4-(8-methyl-3-((trans)-4-(4-methylpiperazin-1-yl)cyclohexyl)imidazo[1,5-a]pyrazin-1-yl)phenyl)-6-methyl-6H-thieno[2,3-b]pyrrole-5-carboxamide]
COc1cc(-c2nc([C@H]3CC[C@H](N4CCN(C)CC4)CC3)n3ccnc(C)c23)ccc1NC(=O)c1cc2ccsc2[nH]1 [Example 57, N-(2-Methoxy-4-(8-methyl-3-((trans)-4-(4-methylpiperazin-1-yl)cyclohexyl)imidazo[1,5-a]pyrazin-1-yl)phenyl)-6H-thieno[2,3-b]pyrrole-5-carboxamide]
COc1cc(-c2nc([C@H]3CC[C@H](N4CCN(C)CC4)CC3)n3ccnc(C)c23)ccc1NC(=O)c1cc2c(OC)cccc2[nH]1 [Example 58, 4-Methoxy-N-(2-methoxy-4-(8-methyl-3-((trans)-4-(4-methylpiperazin-1-yl)cyclohexyl)imidazo[1,5-a]pyrazin-1-yl)phenyl)-1H-indole-2-carboxamide]
COc1cc(-c2nc([C@H]3CC[C@H](N4CCN(C)CC4)CC3)n3ccnc(C)c23)ccc1NC(=O)c1cc2c(O)cccc2n1C [Example 59, 4-Hydroxy-N-(2-methoxy-4-(8-methyl-3-((trans)-4-(4-methylpiperazin-1-yl)cyclohexyl)imidazo[1,5-a]pyrazin-1-yl)phenyl)-1-methyl-1H-indole-2-carboxamide]
CCC[C@H](C)OC(=O)Nc1ccc(-c2nc([C@H]3CC[C@H](CN)CC3)n3ccnc(C)c23)cc1OC [Example 60, (S)-Pentan-2-yl 4-(3-((trans)-4-(aminomethyl)cyclohexyl)-8-methylimidazo[1,5-a]pyrazin-1-yl)-2-methoxyphenylcarbamate]
Cc1nccn2c1c(-c1ccc(NC(=O)c3cc4ccccc4n3C)cc1)nc2[C@H]1CC[C@H](N2CCN(C)CC2)CC1 [Example 61, 1-Methyl-N-(4-(8-methyl-3-((trans)-4-(4-methylpiperazin-1-yl)cyclohexyl)imidazo[1,5-a]pyrazin-1-yl)phenyl)-1H-indole-2-carboxamide]
COc1cccc2c1cc(C(=O)Nc1ccc(-c3nc([C@H]4CC[C@H](N5CCN(C)CC5)CC4)n4ccnc(C)c34)cc1O)n2C [Example 62, N-(2-hydroxy-4-(8-methyl-3-((trans)-4-(4-methylpiperazin-1-yl)cyclohexyl)imidazo[1,5-a]pyrazin-1-yl)phenyl)-4-methoxy-1-methyl-1H-indole-2-carboxamide]
CNC[C@H]1CC[C@H](c2nc(-c3ccc(NC(=O)c4cc5c(OC)cccc5n4C)c(OC)c3)c3c(C)nccn32)CC1 [Example 63, 4-Methoxy-N-(2-methoxy-4-(8-methyl-3-((trans)-4-((methylamino)methyl)cyclohexyl)imidazo[1,5-a]pyrazin-1-yl)phenyl)-1-methyl-1H-indole-2-carboxamide]
COc1cc(-c2nc([C@H]3CC[C@H](CN(C)C)CC3)n3ccnc(C)c23)ccc1NC(=O)c1cc2c(OC)cccc2n1C [Example 64, N-(4-(3-((trans)-4-((dimethylamino)methyl)cyclohexyl)-8-methylimidazo[1,5-a]pyrazin-1-yl)-2-methoxyphenyl)-4-methoxy-1-methyl-1H-indole-2-carboxamide]
CCC[C@H](C)OC(=O)Nc1ccc(-c2nc([C@H]3CC[C@H](CN(C)C)CC3)n3ccnc(C)c23)cc1OC [Example 65, (S)-Pentan-2-yl 4-(3-((trans)-4-((dimethylamino)methyl)cyclohexyl)-8-methylimidazo[1,5-a]pyrazin-1-yl)-2-methoxyphenylcarbamate]
